Patent publication EP0295827A2, “Use of 24,25-dihydroxy-cholecalciferol in mending bone fractures” (priority 1987, dated 1988)

Assay: Acute toxicity, single oral administration
Conditions: mouse, in vivo, ICR male mice, read-out: LD₅₀ value
Experimental: 24,25-(OH)₂-D₃ in ethanol was dissolved in a triglyceride ester of a middle fatty acid so as to have an ethanol concentration of 2 %. The thus-prepared solution was orally administered to 10 ICR male mice (weight: 25 ± 3g). The dosage of 24,25-(OH)₂-D₃ was 100 mg/kg. […] When they were subjected to the biochemical blood test, anatomical examination and pathological histology after they were killed, there was no difference between the treated mice and a controlled group of mice to which only a triglyceride ester of a middle fatty acid containing 2% ethanol had been administered. Since the LD₅₀ value of the oral administration of 24,25-(OH)₂-D₃ was not less than 100 mg/kg, 24,25-(OH)₂-D₃ can be said to be very safe.

In the case of `C=C1CCC(O)CC1=CC=C1CCCC2(C)C1CCC2C(C)CCC(O)C(C)(C)O` (stereo not shown) [24,25-(OH)₂-D₃, 24,25-dihydroxycholecalciferol], the LD50 at 336 h is reported as no less than 100 mg/kg.
